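How tested: cells in 96-well plates exposed to compound for 48 hours at five concentrations. GI50 is the concentration that inhibits growth by half. Definition used: TGI = concentration required for complete inhibition of growth.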
Experiments:
Experiment in all cases: NCI tumour cell line growth inhibition, 48 h
UO-31 renal = system: UO-31 renal
NCI-H460 lung = system: NCI-H460 lung
HCT-15 colon = system: HCT-15 colon
EKVX NSCLC = system: EKVX NSCLC
SN12C renal = system: SN12C renal
SK-MEL-5 melanoma = system: SK-MEL-5 melanoma
IGROV1 ovarian = system: IGROV1 ovarian
SR leukemia = system: SR leukemia
NCI/ADR-RES ovarian = system: NCI/ADR-RES ovarian
RPMI-8226 leukemia = system: RPMI-8226 leukemia

Compound | GI50 (UO-31 renal) [µM] | TGI (UO-31 renal) [µM] | GI50 (NCI-H460 lung) [µM] | TGI (NCI-H460 lung) [µM] | GI50 (HCT-15 colon) [µM] | TGI (HCT-15 colon) [µM] | GI50 (EKVX NSCLC) [µM] | TGI (EKVX NSCLC) [µM] | GI50 (SN12C renal) [µM] | TGI (SN12C renal) [µM] | GI50 (SK-MEL-5 melanoma) [µM] | TGI (SK-MEL-5 melanoma) [µM] | GI50 (IGROV1 ovarian) [µM] | TGI (IGROV1 ovarian) [µM] | GI50 (SR leukemia) [µM] | GI50 (NCI/ADR-RES ovarian) [µM] | TGI (NCI/ADR-RES ovarian) [µM] | GI50 (RPMI-8226 leukemia) [µM] | TGI (RPMI-8226 leukemia) [µM] | TGI (SR leukemia) [µM]
Nc1nc2ccc3[nH]ncc3c2c2c1CCCC2 | 2.13 | 10.5 | 1.6 | 4.56 | 1.88 | 7.22 | 1.54 | 5.38 | 1.91 | 8.93 | 1.54 | 4.08 | 2.29 | 11.2 | 0.467 | 1.75 | 5.57 | – | – | –
COc1cc2c(cc1OC)C(CC1(O)CCCCC1)N(S(=O)(=O)c1ccc(C)cc1)CC2 (configuration not stated) | > 10 | > 10 | > 10 | > 10 | > 10 | > 10 | – | – | > 10 | > 10 | > 10 | > 10 | > 10 | > 10 | > 10 | > 10 | > 10 | > 10 | > 10 | > 10
CC(=O)OC1CC[C@@]2(C)C(CC[C@]3(C)C2CC=C2[C@@H]4CC(C)(C)CCC4(C)CCC23C)[C@@]1(C)C(=O)O (some centres not stated) | – | 35.9 | – | 37 | – | 28.5 | – | 39.5 | – | 41.3 | – | 47.9 | – | 38.6 | – | – | – | – | 58.1 | > 78.3
COc1cc([C@H]2c3cc4c(cc3[C@H](NCc3ccc([N+](=O)[O-])cc3)C3COC(=O)[C@H]32)OCO4)cc(OC)c1O (some centres not stated) | – | 5.75 | – | 2.18 | – | 6.44 | – | > 23.6 | – | 4.68 | – | 6.61 | – | > 61.3 | – | – | – | – | > 25.6 | –
O=C(O)c1ccc([S-])cc1.[Au+].c1ccc(CN2[CH-]N(Cc3ccccc3)C(c3ccccc3)=C2c2ccccc2)cc1 | 0.311 | 1.27 | 0.328 | 1.28 | 1.04 | 2.55 | 0.274 | 1.53 | 0.305 | 1.3 | 0.281 | 1.03 | 0.541 | 2.15 | 0.429 | – | – | 0.323 | 2 | 2.76
O=c1cc(-c2ccccc2)nc(/C=C(\O)c2ccncc2)n1-c1ccccc1 | – | > 100 | – | > 100 | – | > 100 | – | > 100 | – | > 100 | – | > 100 | – | > 100 | – | – | – | – | – | –
C[C@]1(C(=O)O)N[C@H](C(=O)O)CS1 | > 1000 | > 1000 | > 1000 | > 1000 | > 1000 | > 1000 | – | – | – | – | 1.48 | 270 | > 1000 | > 1000 | – | > 1000 | > 1000 | > 1000 | > 1000 | –
CCOc1ccccc1N1C(=O)C(=O)C(c2nc3ccccc3o2)/C(=N\N)C1=O (configuration not stated) | – | 91 | – | – | – | > 100 | – | > 100 | – | > 100 | – | > 100 | – | > 100 | – | – | – | – | > 100 | –
C[n+]1c2ccccc2c(Nc2ccc(NS(=O)(=O)CCCCN=C(N)N)cc2)c2ccc(N)cc21 | 6.5 | > 100 | – | 12.1 | 50.9 | > 100 | – | – | 0.0443 | > 100 | 1.2 | 15.2 | 2.92 | > 100 | 0.138 | > 100 | > 100 | 1.43 | 23.3 | > 26.3
CSc1nc(SC)c2c(C(N)=S)[nH]nc2n1 | – | 49.6 | – | 64.8 | – | > 100 | – | 56 | – | > 100 | – | 34.1 | – | 94.4 | – | – | – | – | 67.8 | 87.1
COc1ccc2c3c(c4ccccc4cc13)C(=O)N(CCN(C)CCN)C2=O | 0.065 | 1.35 | 0.0129 | 0.323 | 0.0453 | 1.01 | 0.538 | 2.06 | 0.0562 | 0.911 | 0.186 | 1.28 | – | – | – | 0.116 | 1.65 | 0.166 | 0.75 | –
CC(C)(c1ccc(Oc2ccc(C#N)c(C#N)c2)cc1)c1ccc(Oc2ccc(C#N)c(C#N)c2)cc1 | – | > 100 | > 100 | > 100 | – | – | > 100 | > 100 | > 100 | > 100 | > 100 | > 100 | > 100 | > 100 | – | – | – | > 100 | > 100 | –
CC1=C(C(=O)Nc2ccc([N+](=O)[O-])cc2)C(c2ccccc2O)C(C(=O)Nc2ccc([N+](=O)[O-])cc2)=C(C)N1 | – | 67.8 | – | 56.4 | – | – | – | 84.9 | – | 55.5 | – | 31.8 | – | > 100 | – | – | – | – | 53.4 | –
CCOC(=O)c1cc2c(cn1)[nH]c1cccc(N)c12 | – | > 100 | – | > 100 | – | – | – | – | – | > 100 | – | > 100 | – | > 100 | – | – | – | – | – | > 100
Nc1nc(NC2C=C(CO)C(O)C2O)c([N+](=O)[O-])c(=O)[nH]1 (configuration not stated) | – | > 100 | – | > 100 | – | > 100 | – | > 100 | – | > 100 | – | > 100 | – | > 100 | – | – | – | – | – | > 100
COc1ccc(C2=Nc3c/c(=C\c4c(O)[nH]c5ccc(Cl)cc45)ccc3=N2)cc1 | 1.46 | 3.46 | – | – | 1.26 | 2.77 | – | – | – | – | – | – | 2.16 | 5.28 | 0.693 | – | – | – | – | 3.4
CCCCN=C(NC#N)N(Cc1ccccc1)Cc1ccccc1 | – | 58 | – | > 100 | – | 29.8 | – | 74.9 | – | 82 | – | 26.1 | – | 74.4 | – | – | – | – | 40.8 | –
CC(C)(O)[C@@H]1CC[C@@]2(C)CCC[C@H](O)[C@H]2C1 | – | > 100 | – | > 100 | – | > 100 | – | – | – | > 100 | – | > 100 | – | > 100 | – | – | – | – | > 100 | > 100
COc1ccc2nc(NCN3C(=O)c4ccccc4C3=O)sc2c1 | – | > 100 | – | > 100 | – | > 100 | – | > 100 | – | > 100 | – | > 100 | – | > 100 | – | – | > 100 | – | > 100 | –
